According to ChEMBL document CHEMBL4304831, “Chalcone-Thiazole Hybrids: Rational Design, Synthesis, and Lead Identification against 5-Lipoxygenase” (ACS Med Chem Lett, 2019):
One block for each molecule: values may come before it.

What was measured:
[1] = target: T1, Polyunsaturated fatty acid 5-lipoxygenase (Homo sapiens) (UniProt P09917); assay: Inhibition of human recombinant 5-LOX expressed in Escherichia coli BL21 assessed as conversion of arachidonic acid to 5-HPETE at 10 uM using arachidonic acid as substrate in presence of ATP by UV-vis spectrophotometry analysis relative to control
T1 sequence (whole entry): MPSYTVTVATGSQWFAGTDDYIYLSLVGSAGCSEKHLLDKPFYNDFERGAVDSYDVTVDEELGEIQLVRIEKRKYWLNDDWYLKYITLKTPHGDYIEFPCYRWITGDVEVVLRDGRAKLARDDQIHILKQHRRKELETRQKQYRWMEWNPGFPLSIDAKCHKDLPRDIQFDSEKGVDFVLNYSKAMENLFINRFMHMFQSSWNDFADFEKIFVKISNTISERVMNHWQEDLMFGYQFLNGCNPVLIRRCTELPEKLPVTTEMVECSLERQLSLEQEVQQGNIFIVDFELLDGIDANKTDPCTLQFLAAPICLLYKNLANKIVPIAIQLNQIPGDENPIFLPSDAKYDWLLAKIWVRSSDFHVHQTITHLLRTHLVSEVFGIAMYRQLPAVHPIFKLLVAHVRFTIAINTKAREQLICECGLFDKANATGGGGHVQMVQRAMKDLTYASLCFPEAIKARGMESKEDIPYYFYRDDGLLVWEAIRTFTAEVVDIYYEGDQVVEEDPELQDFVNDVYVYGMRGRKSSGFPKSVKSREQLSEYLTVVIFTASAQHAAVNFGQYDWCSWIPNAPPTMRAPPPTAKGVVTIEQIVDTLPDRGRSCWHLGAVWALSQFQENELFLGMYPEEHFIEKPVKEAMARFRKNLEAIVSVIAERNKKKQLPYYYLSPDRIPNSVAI

[2] = Antioxidant activity assessed as DPPH radical scavenging activity at 10 uM after 30 mins under dark condition relative to control; type: functional
[3] = target: T2, Polyunsaturated fatty acid 5-lipoxygenase (Homo sapiens, UniProt P09917); assay: Inhibition of human recombinant 5-LOX expressed in Escherichia coli BL21 assessed as conversion of arachidonic acid to 5-HPETE using arachidonic acid as substrate in presence of ATP by UV-vis spectrophotometry analysis
T2 sequence (P09917 whole entry): T1 sequence (whole entry)

[4] = target: T1, Polyunsaturated fatty acid 5-lipoxygenase (Homo sapiens); assay: Inhibition of human recombinant 5-LOX pseudoperoxidase activity expressed in Escherichia coli BL21 assessed as compound redox activity by measuring change in absorption at 10 uM using 13(S)-HpODE as substrate in presence of ATP by UV-vis spectrophotometric method relative to control; parameters: scale not given: the % may be the effect or the level left
[5] = compound: COc1cc(/C=C/C(=O)c2sc(NC(=O)c3ccccc3)nc2C)cc(OC)c1OC; assay: Noncompetitive inhibition of human recombinant 5-LOX expressed in Escherichia coli BL21 assessed as Km for substrate at 2 uM using varying levels arachidonic acid as substrate by Lineweaver-Burk plot analysis (reference value: 1.9 +/- 0.4 uM)
[6] = compound: COc1cc(/C=C/C(=O)c2sc(NC(=O)c3ccccc3)nc2C)cc(OC)c1OC; assay: Noncompetitive inhibition of human recombinant 5-LOX expressed in Escherichia coli BL21 assessed as Km for substrate at 5 uM using varying levels arachidonic acid as substrate by Lineweaver-Burk plot analysis (reference value: 1.9 +/- 0.4 uM)
[7] = compound: COc1cc(/C=C/C(=O)c2sc(NC(=O)c3ccccc3)nc2C)cc(OC)c1OC; assay: Noncompetitive inhibition of human recombinant 5-LOX expressed in Escherichia coli BL21 assessed as decrease in Vmax for substrate at 2 uM using varying levels arachidonic acid as substrate by Lineweaver-Burk plot analysis (reference value: 0.38 +/- 0.02 nmol/min)
[8] = compound: COc1cc(/C=C/C(=O)c2sc(NC(=O)c3ccccc3)nc2C)cc(OC)c1OC; assay: Noncompetitive inhibition of human recombinant 5-LOX expressed in Escherichia coli BL21 assessed as decrease in Vmax for substrate at 5 uM using varying levels arachidonic acid as substrate by Lineweaver-Burk plot analysis (reference value: 0.38 +/- 0.02 nmol/min)
[9] = compound: COc1ccc(C(=O)Nc2nc(C)c(C(=O)/C=C/c3ccc(C)cc3)s2)cc1; assay: (§1) Competitive inhibition of human recombinant 5-LOX expressed in Escherichia coli BL21 assessed as Vmax for substrate at 2 uM using varying levels arachidonic acid as substrate by Lineweaver-Burk plot analysis (reference value: 0.33 to 0.45 +/- 0.01 nmol/min)
[10] = compound: Cc1nc(NC(=O)c2ccccc2)sc1C(=O)/C=C/c1cc2c(cc1Br)OCO2; assay: as §1
[11] = compound: COc1ccc(C(=O)Nc2nc(C)c(C(=O)/C=C/c3ccc(C)cc3)s2)cc1; assay: (§2) Competitive inhibition of human recombinant 5-LOX expressed in Escherichia coli BL21 assessed as Vmax for substrate at 5 uM using varying levels arachidonic acid as substrate by Lineweaver-Burk plot analysis (reference value: 0.33 to 0.45 +/- 0.01 nmol/min)
[12] = compound: Cc1nc(NC(=O)c2ccccc2)sc1C(=O)/C=C/c1cc2c(cc1Br)OCO2; assay: as §2
[13] = compound: COc1ccc(C(=O)Nc2nc(C)c(C(=O)/C=C/c3ccc(C)cc3)s2)cc1; assay: (§3) Competitive inhibition of human recombinant 5-LOX expressed in Escherichia coli BL21 assessed as increase in Km for substrate at 2 uM using varying levels arachidonic acid as substrate by Lineweaver-Burk plot analysis (reference value: 0.31 to 0.35 +/- 0.08 to 0.10 uM)
[14] = compound: Cc1nc(NC(=O)c2ccccc2)sc1C(=O)/C=C/c1cc2c(cc1Br)OCO2; assay: as §3
[15] = compound: COc1ccc(C(=O)Nc2nc(C)c(C(=O)/C=C/c3ccc(C)cc3)s2)cc1; assay: (§4) Competitive inhibition of human recombinant 5-LOX expressed in Escherichia coli BL21 assessed as increase in Km for substrate at 5 uM using varying levels arachidonic acid as substrate by Lineweaver-Burk plot analysis (reference value: 0.31 to 0.35 +/- 0.08 to 0.10 uM)
[16] = compound: Cc1nc(NC(=O)c2ccccc2)sc1C(=O)/C=C/c1cc2c(cc1Br)OCO2; assay: as §4

inhibition [1]: 58.8%
Molecule: COc1ccc(/C=C/C(=O)c2sc(NC(=O)c3ccccc3)nc2C)cc1
Activity [2]: 7.9%

inhibition [1]: 71.9%
Molecule: Cc1nc(NC(=O)c2ccccc2)sc1C(=O)/C=C/c1cccs1
Activity [2]: 2.2%

inhibition [1]: 75.1%
Molecule: Cc1ccc(/C=C/C(=O)c2sc(NC(=O)c3ccccc3)nc2C)cc1
Activity [2]: 3%

inhibition [1]: 52.3%
Molecule: Cc1nc(NC(=O)c2ccccc2)sc1C(=O)/C=C/c1ccc(Br)cc1
Activity [2]: 2.4%

inhibition [1]: 98%
IC50 [3]: 140 nM
Activity [4]: -12.5%
Molecule: Cc1nc(NC(=O)c2ccccc2)sc1C(=O)/C=C/c1ccc(F)cc1
Activity [2]: 3%

inhibition [1]: 70.2%
Molecule: Cc1nc(NC(=O)c2ccc(F)cc2)sc1C(=O)/C=C/c1ccc(N(C)C)cc1
Activity [2]: 3.9%

inhibition [1]: 100%
IC50 [3]: 80 nM
Activity [4]: 5.6%
Molecule: COc1ccc(C(=O)Nc2nc(C)c(C(=O)/C=C/c3ccc(C)cc3)s2)cc1
Activity [2]: 5.5%

inhibition [1]: 48.8%
Molecule: Cc1nc(NC(=O)c2ccc([N+](=O)[O-])cc2)sc1C(=O)/C=C/c1ccc(Cl)cc1
Activity [2]: 2.4%

inhibition [1]: 88.2%
IC50 [3]: 640 nM
Activity [4]: -12.2%
Molecule: Cc1nc(NC(=O)c2ccccc2)sc1C(=O)/C=C/c1ccc(N(C)C)cc1
Activity [2]: 0%

inhibition [1]: 100%
IC50 [3]: 120 nM
Activity [4]: 1.2%
Molecule: Cc1nc(NC(=O)c2ccccc2)sc1C(=O)/C=C/c1cc2c(cc1Br)OCO2
Activity [2]: 5.4%

inhibition [1]: 70.2%
Molecule: COc1ccc(/C=C/C(=O)c2sc(NC(=O)c3ccccc3)nc2C)cc1OC
Activity [2]: 6.4%

inhibition [1]: 73.5%
Molecule: Cc1nc(NC(=O)c2ccccc2)sc1C(=O)/C=C/c1ccccc1
Activity [2]: 2.5%

inhibition [1]: 63.7%
Molecule: Cc1nc(NC(=O)c2ccccc2)sc1C(=O)/C=C/c1ccc(Cl)cc1
Activity [2]: 8.8%

inhibition [1]: 65.3%
Molecule: Cc1nc(NC(=O)c2ccc(F)cc2)sc1C(=O)/C=C/c1ccco1
Activity [2]: 8.2%

Further lines, the molecule ahead of its results:

Molecule: COc1cc(/C=C/C(=O)c2sc(NC(=O)c3ccccc3)nc2C)cc(OC)c1OC
inhibition [1]: 100%
IC50 [3]: 70 nM
Activity [2]: 5.7%
Activity [4]: -56.6%

Molecule: O=C1O[C@H]([C@@H](O)CO)C(O)=C1O
Activity [2]: 60.5%

Molecule: Cc1nc(NC(=O)c2ccc(F)cc2)sc1C(=O)/C=C/c1cc2c(cc1Br)OCO2
inhibition [1]: 50.6%
Activity [2]: 5.1%

Molecule: Cc1ccc(/C=C/C(=O)c2sc(NC(=O)c3ccc(F)cc3)nc2C)cc1
inhibition [1]: 91.5%
IC50 [3]: 540 nM
Activity [2]: 15%
Activity [4]: -56.3%

Molecule: Cc1nc(NC(=O)c2ccccc2)sc1C(=O)/C=C/c1cccc([N+](=O)[O-])c1
inhibition [1]: 98%
IC50 [3]: 240 nM
Activity [2]: 8.7%
Activity [4]: -40.2%

Molecule: CC(c1cc2ccccc2s1)N(O)C(N)=O (centres undefined)
Activity [2]: 10.3%

Molecule: Cc1nc(NC(=O)c2ccccc2)sc1C(=O)/C=C/c1ccco1
inhibition [1]: 57.2%
Activity [2]: 3.4%

Molecule: COc1ccc(C(=O)Nc2nc(C)c(C(=O)/C=C/c3ccc(F)cc3)s2)cc1
inhibition [1]: 88.2%
IC50 [3]: 560 nM
Activity [2]: 2.1%
Activity [4]: 0.3%

Molecule: Cc1nc(NC(=O)c2ccc(F)cc2)sc1C(=O)/C=C/c1cccs1
inhibition [1]: 81.7%
Activity [2]: 0%

Molecule: Cc1nc(NC(=O)c2ccccc2)sc1C(=O)/C=C/c1cccc(Br)c1
inhibition [1]: 42.5%
Activity [2]: 5.7%

B1: Polyunsaturated fatty acid 5-lipoxygenase (Homo sapiens), P09917 (protein)
chain: T1 sequence (whole entry)
Km [5]: 1.8 µM
Km [6]: 2.1 µM
Vmax [7]: 0.29 nmol/min
Vmax [8]: 0.25 nmol/min
Vmax [9]: 0.32 nmol/min
Vmax [10]: 0.43 nmol/min
Vmax [11]: 0.31 nmol/min
Vmax [12]: 0.42 nmol/min
Km [13]: 0.43 µM
Km [14]: 1.41 µM
Km [15]: 0.53 µM
Km [16]: 2.91 µM
